Results as given in ChEMBL document CHEMBL5226352, “Inhibition of AlkB Nucleic Acid Demethylases: Promising New Epigenetic Targets” (J Med Chem, 2021).
Values belong to the compound of their own block, whether it stands above or below them.

Tests used:
[1] = biological target: T1, Alpha-ketoglutarate-dependent dioxygenase FTO (Homo sapiens, UniProt Q9C0B1); test: Inhibition of FTO (unknown origin) demethylation activity
[2] = biological target: T2, Alpha-ketoglutarate-dependent dioxygenase alkB homolog 3 (Homo sapiens, UniProt Q96Q83); test: Inhibition of human ALKBH3 demethylase activity by restriction endonuclease digestion assay
T2 sequence (Q96Q83 whole entry): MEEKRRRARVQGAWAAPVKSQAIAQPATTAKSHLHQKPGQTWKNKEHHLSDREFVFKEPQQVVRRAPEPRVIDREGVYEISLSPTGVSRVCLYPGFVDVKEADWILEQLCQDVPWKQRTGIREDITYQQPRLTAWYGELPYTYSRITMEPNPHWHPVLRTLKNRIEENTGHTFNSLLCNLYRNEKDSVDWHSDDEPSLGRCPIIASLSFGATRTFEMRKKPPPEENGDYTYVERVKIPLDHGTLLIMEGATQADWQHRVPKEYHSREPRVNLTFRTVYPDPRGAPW

[3] = biological target: T3, RNA demethylase ALKBH5 (Homo sapiens, UniProt Q6P6C2); test: Inhibition of N-terminal His-tagged human ALKBH5 (66 to 292 residues)
[4] = biological target: T4, DNA oxidative demethylase ALKBH2 (Homo sapiens, UniProt Q6NS38); test: Inhibition of human ALKBH2 demethylase activity by restriction endonuclease digestion assay
T4 sequence (Q6NS38 whole entry): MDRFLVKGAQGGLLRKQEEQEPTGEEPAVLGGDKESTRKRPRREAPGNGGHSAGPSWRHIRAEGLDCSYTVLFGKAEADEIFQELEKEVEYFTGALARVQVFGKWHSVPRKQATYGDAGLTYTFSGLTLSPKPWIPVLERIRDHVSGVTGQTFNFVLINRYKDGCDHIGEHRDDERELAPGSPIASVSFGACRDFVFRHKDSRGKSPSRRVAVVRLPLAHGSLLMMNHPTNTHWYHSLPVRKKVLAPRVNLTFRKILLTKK

[5] = biological target: T1, Alpha-ketoglutarate-dependent dioxygenase FTO; test: Inhibition of N-terminal 31 residues truncated His-tagged human FTO demethylase activity expressed in Escherichia coli BL21(DE3) cells
[6] = biological target: T2, Alpha-ketoglutarate-dependent dioxygenase alkB homolog 3; test: Inhibition of ALKBH3 (unknown origin) using 3-methyl cytosine oligo DNA as substrate incubated for 1 hr by SYBR green dye based RT-PCR analysis
[7] = biological target: T3, RNA demethylase ALKBH5; test: Inhibition of human ALKBH5 (74 to 294 residues) expressed in Escherichia coli BL21(DE3) V2R-pRARE cells using biotin labeled m6A-ss-RNA with UACACUCGAUCUGG(m6A)CUAAAGCUGCUC sequence as substrate incubated for 1 hr by TopCount scintillation counting method
[8] = biological target: T5, Alpha-ketoglutarate-dependent dioxygenase AlkB (Escherichia coli (strain K12), UniProt P05050); test: Inhibition of Escherichia coli AlkB DNA repair activity using 1-methyladenine with GC-1meA-AGGTCCCGTAGTGCG sequence as substrate by FDH coupled assay
T5 sequence (P05050 whole entry): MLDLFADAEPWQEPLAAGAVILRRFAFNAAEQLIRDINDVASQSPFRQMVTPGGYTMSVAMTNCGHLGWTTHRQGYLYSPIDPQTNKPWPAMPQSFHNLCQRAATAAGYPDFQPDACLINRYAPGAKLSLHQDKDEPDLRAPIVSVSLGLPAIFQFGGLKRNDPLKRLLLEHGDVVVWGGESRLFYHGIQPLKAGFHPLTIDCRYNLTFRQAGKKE

[9] = biological target: T1, Alpha-ketoglutarate-dependent dioxygenase FTO; test: Inhibition of N-terminal 31 residues truncated FTO (unknown origin) demethylase activity using m6A containing ssRNA as substrate incubated for 1 hr by LC-MS analysis
[10] = biological target: T3, RNA demethylase ALKBH5; test: Inhibition of human ALKBH5 (66 to 292 residues) demethylase activity using 49 nt methylated ssDNA as substrate incubated for 2 hrs by GelRed staining based restriction endonuclease digestion assay
[11] = biological target: T1, Alpha-ketoglutarate-dependent dioxygenase FTO; test: Inhibition of human FTO (31 to 505 residues) demethylase activity using 15-mer ssRNA with CUUGUCA(m6A)CAGCAGA sequence as substrate incubated for 0.5 hrs by LC-MS/MS analysis
[12] = biological target: T4, DNA oxidative demethylase ALKBH2; test: Inhibition of human ALKBH2 by HPLC analysis
[13] = biological target: T2, Alpha-ketoglutarate-dependent dioxygenase alkB homolog 3; test: Inhibition of human ALKBH3 by HPLC analysis
[14] = biological target: T5, Alpha-ketoglutarate-dependent dioxygenase AlkB; test: Inhibition of Escherichia coli AlkB by HPLC analysis
[15] = Oral bioavailability in rat; type: ADME, organism-based; settings: in vivo
[16] = biological target: T5, Alpha-ketoglutarate-dependent dioxygenase AlkB; test: Inhibition of Escherichia coli AlkB-mediated demethylation using 40-mer single N3-meC containing ssDNA as substrate preincubated for 1 hr followed by substrate addition by fluorescence based assay
[17] = biological target: T6, Alpha-ketoglutarate-dependent dioxygenase alkB homolog 3 (Homo sapiens) (UniProt Q96Q83); test: Inhibition of ALKBH3 (unknown origin) at 50 uM relative to control
T6 sequence (whole entry): T2 sequence (Q96Q83 whole entry)

T1 sequence (Q9C0B1 whole entry): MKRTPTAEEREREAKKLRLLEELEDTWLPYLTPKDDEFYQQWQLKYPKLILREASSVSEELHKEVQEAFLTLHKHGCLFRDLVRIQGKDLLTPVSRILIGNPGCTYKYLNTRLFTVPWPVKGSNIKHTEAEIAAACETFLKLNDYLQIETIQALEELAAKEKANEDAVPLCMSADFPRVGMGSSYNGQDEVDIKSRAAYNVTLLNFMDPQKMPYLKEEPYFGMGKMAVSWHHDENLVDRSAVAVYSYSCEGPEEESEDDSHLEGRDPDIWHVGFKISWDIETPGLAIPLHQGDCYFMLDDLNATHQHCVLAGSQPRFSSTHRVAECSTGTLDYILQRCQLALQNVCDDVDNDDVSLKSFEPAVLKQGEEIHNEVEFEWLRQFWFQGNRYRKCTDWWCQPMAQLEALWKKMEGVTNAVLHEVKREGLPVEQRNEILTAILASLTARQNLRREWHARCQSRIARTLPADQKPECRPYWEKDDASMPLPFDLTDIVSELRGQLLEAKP
T3 sequence (Q6P6C2 whole entry, the tested form may be a part): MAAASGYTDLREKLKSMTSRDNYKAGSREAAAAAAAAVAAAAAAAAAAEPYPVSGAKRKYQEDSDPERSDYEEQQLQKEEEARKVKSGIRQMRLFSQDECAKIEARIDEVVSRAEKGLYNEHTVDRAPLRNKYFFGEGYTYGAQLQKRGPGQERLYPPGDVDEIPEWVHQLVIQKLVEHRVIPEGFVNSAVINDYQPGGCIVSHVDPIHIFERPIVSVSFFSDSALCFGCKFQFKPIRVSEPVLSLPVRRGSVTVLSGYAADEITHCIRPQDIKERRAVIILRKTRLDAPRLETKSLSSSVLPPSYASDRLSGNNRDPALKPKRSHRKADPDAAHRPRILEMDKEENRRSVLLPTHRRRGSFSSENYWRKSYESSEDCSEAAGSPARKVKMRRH

- IC50 [6]: 2.9 µM
Compound: Cc1nn(-c2nc3cc(F)ccc3[nH]2)c(O)c1-c1ccccc1

- IC50 [7]: 2.9 µM
- IC50 [8]: 10.2 µM
Compound: O=C(O)c1ccc(O)c2ncccc12

- bioavailability [15]: 7.2%
Compound: Cc1ccc2[nH]c(-n3nc(C)cc3O)nc2c1

Further lines, the compound ahead of its results:

Compound: CCN(CC)C(=O)/C(C#N)=C/c1cc(O)c(O)c([N+](=O)[O-])c1 [ENTACAPONE]
- IC50 [1]: 3.5 µM

Compound: Cc1ccc(Cl)c(Nc2ccccc2C(=O)O)c1Cl [MECLOFENAMIC ACID]
- IC50 [2]: > 100 µM
- IC50 [3]: > 100 µM
- IC50 [4]: > 100 µM
- IC50 [5]: 8 µM

Compound: O=C1OC2(c3ccc(O)cc3Oc3cc(O)ccc32)c2ccccc21 [FLUORESCEIN]
- IC50 [9]: 3.23 µM
- IC50 [10]: > 100 µM

Compound: COc1cc2c(cc1Cl)C(C)(C)CC(C)(c1cc(Cl)c(O)cc1O)O2 (configuration not stated)
- IC50 [11]: 39.2 µM

Compound: O=C(O)c1cc(O)c2c(c1)C(=O)c1cccc(O)c1C2=O [RHEIN]
- IC50 [12]: 9.1 µM
- IC50 [13]: 5.3 µM
- IC50 [14]: 12.7 µM

Compound: O=C1c2ccc(-c3ccccc3)cc2C(NC2CCCCC2)C1Cl (configuration not stated)
- IC50 [16]: 19.4 µM
- inhibition [17]: 0%
